Data from patent US8658661B2, “Oxadiazole inhibitors of leukotriene production” (Boehringer Ingelheim International GmbH, priority 2010, dated 2014).

Legend:
[1] = target: T1, recombinant human FLAP protein (Homo sapiens, UniProt P20292); test: FLAP binding assay (SPA, displacement of [125I]L-691,831); conditions: membranes of sf9 cells expressing recombinant human FLAP; [125I]L-691,831 probe; read-out: FLAP binding IC50
T1 construct: made in house; host or cells: Sf9 insect cells (100,000×g membrane pellet used)
T1 sequence (P20292 1-161): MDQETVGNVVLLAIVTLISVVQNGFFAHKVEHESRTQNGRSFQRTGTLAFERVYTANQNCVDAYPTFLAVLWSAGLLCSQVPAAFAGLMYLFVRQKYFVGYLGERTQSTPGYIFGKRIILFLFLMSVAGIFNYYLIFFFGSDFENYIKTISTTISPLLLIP
Procedure, shortened: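 Membranes from sf9 cells expressing human FLAP in pH 7.5 Tris buffer (MgCl2, EDTA, PMSF). Non-specific binding defined with 10 μM cold L-691,831.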

[2] = system: synthesis of LTB4 in human whole blood; test: Human whole blood assay (inhibition of LTB4 synthesis, calcimycin stimulated); format: cell-based; conditions: heparinized human whole blood, calcimycin 20 μM, plasma LTB4
Procedure, shortened: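 Whole-blood cellular format, heparinized human donors: 15 min compound pretreatment, then 30 min calcimycin stimulation (20 μM final), both at 37° C. Low-speed centrifugation yields plasma, in which LTB4 is read by homogeneous time-resolved fluorescence immunoassay.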

Compound	IC50 [1] [nM]	IC50 [2] [nM]
CC(C)[C@@](C)(c1ccc(-c2cnc(N)nc2)cc1)c1noc(-c2cn[nH]c2)n1 [Example 78, 5-(4-{(2S)-3-methyl-2-[5-(1H-pyrazol-4-yl)-1,2,4-oxadiazol-3-yl]butan-2-yl}phenyl)pyrimidin-2-amine]	1.3	240
CC(C)C(C)(c1ccc(-c2cnc(N)nc2)cc1)c1noc(-c2cn[nH]c2)n1 (stereo not shown) [Example 146, 5-(4-{3-methyl-2-[5-(1H-pyrazol-4-yl)-1,2,4-oxadiazol-3-yl]butan-2-yl}phenyl)pyrimidin-2-amine]	1.3	46
CN(C)C(=O)Cn1cc(-c2nc([C@@](C)(c3ccc(-c4cnc5c(c4)CCN5)cc3)C3CC3)no2)cn1 [Example 284, 2-[4-(3-{(R)-1-Cyclopropyl-1-[4-(2,3-dihydro-1H-pyrrolo[2,3-b]pyridin-5-yl)-phenyl]-ethyl}-[1,2,4]oxadiazol-5-yl)-pyrazol-1-yl]-N,N-dimethyl-acetamide]	4.7	200
COC1CCN(c2nc(C(C)(c3ccc(-c4cnc(N)nc4)cc3)C(C)C)no2)CC1 (stereo not shown) [Example 270, 5-(4-{1-[5-(4-Methoxy-piperidin-1-yl)-[1,2,4]oxadiazol-3-yl]-1,2-dimethyl-propyl}-phenyl)-pyrimidin-2-ylamine]	9.8	96
Cc1nc(N)nc(F)c1-c1ccc([C@](C)(c2noc(-c3cnn(CC(=O)N(C)C)c3)n2)C2CC2)cc1 [Example 298, 2-[4-(3-{(R)-1-[4-(2-Amino-4-fluoro-6-methyl-pyrimidin-5-yl)-phenyl]-1-cyclopropyl-ethyl}-[1,2,4]oxadiazol-5-yl)-pyrazol-1-yl]-N,N-dimethyl-acetamide]	10	130
Cn1ccc(-c2nc(C(C)(c3ccc(-c4cnc(N)nc4)cc3)C3CC3)no2)n1 (stereo not shown) [Example 26, 5-(4-{1-cyclopropyl-1-[5-(1-methyl-1H-pyrazol-3-yl)-1,2,4-oxadiazol-3-yl]ethyl}phenyl)pyrimidin-2-amine]	9.1	160
Cn1cc(-c2nc(C(c3ccc(-c4cnc(N)nc4)cc3)C(C)(C)C)no2)cn1 (stereo not shown) [Example 58, 5-(4-{2,2-dimethyl-1-[5-(1-methyl-1H-pyrazol-4-yl)-1,2,4-oxadiazol-3-yl]propyl}phenyl)pyrimidin-2-amine]	11	190
CC(C)C(C)(c1ccc(-c2cnc(N)nc2)cc1)c1noc(-c2cncc3ccccc23)n1 (stereo not shown) [Example 127, 5-(4-{2-[5-(isoquinolin-4-yl)-1,2,4-oxadiazol-3-yl]-3-methylbutan-2-yl}phenyl)pyrimidin-2-amine]	2.9	650
CC(C)C(C)(c1ccc(-c2cnc(N)nc2)cc1)c1noc(CC(C)(C)O)n1 (stereo not shown) [Example 225, 1-(3-{1-[4-(2-Amino-pyrimidin-5-yl)-phenyl]-1,2-dimethyl-propyl}-[1,2,4]oxadiazol-5-yl)-2-methyl-propan-2-ol]	16	350
CC(C)C(C)(c1ccc(-c2cnc(N)nc2)cc1)c1noc(C2(C(=O)O)CCCCC2)n1 (stereo not shown) [Example 145, 1-(3-{2-[4-(2-aminopyrimidin-5-yl)phenyl]-3-methylbutan-2-yl}-1,2,4-oxadiazol-5-yl)cyclohexanecarboxylic acid]	17	2500
COc1ncc(-c2nc(C(C)(c3ccc(-c4cnc(N)nc4)cc3)C(C)C)no2)cn1 (stereo not shown) [Example 155, 5-(4-{2-[5-(2-methoxypyrimidin-5-yl)-1,2,4-oxadiazol-3-yl]-3-methylbutan-2-yl}phenyl)pyrimidin-2-amine]	1.9	81
CC(C)C(C)(c1ccc(-c2cnc(N)nc2)cc1)c1noc(-c2cnn(CC(=O)N(C)C)c2)n1 (stereo not shown) [Example 106, 2-[4-(3-{2-[4-(2-aminopyrimidin-5-yl)phenyl]-3-methylbutan-2-yl}-1,2,4-oxadiazol-5-yl)-1H-pyrazol-1-yl]-N,N-dimethylacetamide]	4.8	76
C[C@@](c1ccc(-c2cnc(N)nc2)cc1)(c1noc(-c2cnn(C3COC3)c2)n1)C1CCC1 [Example 102, 5-{4-[(1R)-1-cyclobutyl-1-{5-[1-(oxetan-3-yl)-1H-pyrazol-4-yl]-1,2,4-oxadiazol-3-yl}ethyl]phenyl}pyrimidin-2-amine]	1.6	51
CC(c1ccc(-c2cnc(N)nc2)cc1)(c1noc(N2CCC[C@H](O)C2)n1)C1CC1 (stereo partly drawn) [Example 288, (S)-1-(3-{1-[4-(2-Amino-pyrimidin-5-yl)-phenyl]-1-cyclopropyl-ethyl}-[1,2,4]oxadiazol-5-yl)-piperidin-3-ol]	2.5	200
C[C@@](c1ccc(-c2cnc(N)nc2)cc1)(c1noc(-c2cnn(C3COC3)c2)n1)C1CC1 [Example 54, 5-{4-[(1R)-1-cyclopropyl-1-{5-[1-(oxetan-3-yl)-1H-pyrazol-4-yl]-1,2,4-oxadiazol-3-yl}ethyl]phenyl}pyrimidin-2-amine]	2.6	27
Cn1cnc(-c2nc(C(C)(c3ccc(-c4cnc(N)nc4)cc3)C3CC3)no2)c1 (stereo not shown) [Example 28, 5-(4-{1-cyclopropyl-1-[5-(1-methyl-1H-imidazol-4-yl)-1,2,4-oxadiazol-3-yl]ethyl}phenyl)pyrimidin-2-amine]	26	320
COCCNc1cnc(-c2nc(C(C)(c3ccc(-c4cnc(N)nc4)cc3)C3CC3)no2)cn1 (stereo not shown) [Example 42, 5-{4-[1-cyclopropyl-1-(5-{5-[(2-methoxyethyl)amino]pyrazin-2-yl}-1,2,4-oxadiazol-3-yl)ethyl]phenyl}pyrimidin-2-amine]	1.5	25
CCNc1nc(C(C)(c2ccc(-c3cnc(N)nc3)cc2)C(C)C)no1 (stereo not shown) [Example 134, 5-(4-{2-[5-(ethylamino)-1,2,4-oxadiazol-3-yl]-3-methylbutan-2-yl}phenyl)pyrimidin-2-amine]	8.3	190
CC(C)C(C)(c1ccc(-c2cnc(N)nc2)cc1)c1noc(N2CCN(C(N)=O)CC2)n1 (stereo not shown) [Example 192, 4-(3-{1-[4-(2-Amino-pyrimidin-5-yl)-phenyl]-1,2-dimethyl-propyl} [1,2,4]oxadiazol-5-yl)-piperazine-1-carboxylic acid amide]	23	740
C[C@@](c1ccc(-c2ccc(N)nc2)cc1)(c1noc(-c2cnc(N3CCNCC3)cn2)n1)C1CC1 [Example 210, 5-(4-{(R)-1-Cyclopropyl-1-[5-(3,4,5,6-tetrahydro-2H-[1,2′]bipyrazinyl-5′-yl)-[1,2,4]oxadiazol-3-yl]-ethyl}-phenyl)-pyridin-2-ylamine]	4.4	190
COCCNc1cnc(-c2nc(C(C)(c3ccc(-c4cnc(N)nc4)cc3)C3CCC3)no2)cn1 (stereo not shown) [Example 36, 5-{4-[1-cyclobutyl-1-(5-{5-[(2-methoxyethyl)amino]pyrazin-2-yl}-1,2,4-oxadiazol-3-yl)ethyl]phenyl}pyrimidin-2-amine]	3.2	170
CN(C)C(=O)Cn1cc(-c2nc([C@@](C)(c3ccc(-c4ccc(N)nc4)cc3)C3CC3)no2)cn1 [Example 172, 2-[4-(3-{(R)-1-[4-(6-Amino-pyridin-3-yl)-phenyl]-1-cyclopropyl-ethyl}-[1,2,4]oxadiazol-5-yl)-pyrazol-1-yl]-N,N-dimethyl-acetamide]	1.1	66
CC(c1ccc(-c2cnc(N)nc2)cc1)(c1noc(-c2cn[nH]c2)n1)C1CC1 (stereo not shown) [Example 21, 5-(4-{1-cyclopropyl-1-[5-(1H-pyrazol-4-yl)-1,2,4-oxadiazol-3-yl]ethyl}phenyl)pyrimidin-2-amine]	5.5	87
CC(C)(O)CNc1ccc(-c2nc(C(C)(C)c3ccc(-c4cnc(N)nc4)cc3)no2)cn1 [Example 70, 1-{[5-(3-{2-[4-(2-aminopyrimidin-5-yl)phenyl]propan-2-yl}-1,2,4-oxadiazol-5-yl)pyridin-2-yl]amino}-2-methylpropan-2-ol]	7.1	590
CN(C)C(=O)Cn1cc(-c2nc([C@](C)(c3ccc(-c4cnc(N)nc4)cc3)C3CC3)no2)cn1 (single isomer, unassigned) [Example 116]	150	2000
Cn1cc(-c2nc(C(C)(C)c3ccc(-c4cnc(N)nc4)cc3)no2)cn1 [Example 68, 5-(4-{2-[5-(1-methyl-1H-pyrazol-4-yl)-1,2,4-oxadiazol-3-yl]propan-2-yl}phenyl)pyrimidin-2-amine]	6.7	93
C[C@@](c1ccc(-c2cnc(N)nc2)cc1)(c1noc(-c2cnc(N3CCNCC3)cn2)n1)C1CC1 [Example 196, 5-(4-{(R)-1-Cyclopropyl-1-[5-(3,4,5,6-tetrahydro-2H-[1,2′]bipyrazinyl-5′-yl)-[1,2,4]oxadiazol-3-yl]-ethyl}-phenyl)-pyrimidin-2-ylamine]	2.2	180
CN(C)C(=O)Cn1cc(-c2nc(C(C)(c3ccc(-c4cnc(N)c(F)c4)cc3)C3CC3)no2)cn1 (stereo not shown) [Example 243, 2-[4-(3-{1-[4-(6-Amino-5-fluoro-pyridin-3-yl)-phenyl]-1-cyclopropyl-ethyl}-[1 ,2,4]oxadiazol-5-yl)-pyrazol-1-yl]-N,N-dimethyl-acetamide]	12	170
CC(C)(CO)Nc1cnc(-c2nc([C@](C)(c3ccc(-c4cnc(N)nc4)cc3)C3CC3)no2)cn1 (single isomer, unassigned) [Example 57]	6.8	150
